{"source": "patent US20240366823A1", "about": "“INSTANT ACTION AEROSOL FOR AIR SANITIZATION AND DISINFECTION” (Reckitt Benckiser LLC, priority 2021, published 2024)", "origin": "cited, not measured here", "key": {"[1]": {"settings": "at 20° C."}, "[2]": {"settings": "ethanol, water"}}}
{"smiles": "OCCOCCOCCO", "note": "[TEG, Triethylene glycol]", "values": [{"measurement": "vapor pressure", "setting": "[1]", "result": 0.02, "unit": "Pa"}, {"measurement": "solubility", "setting": "[2]", "result": "soluble in ethanol and miscible with water"}]}
